Measured values taken from patent EP1147080B1 (Wyeth Holdings Corporation, priority 1999, dated 2000).
pIC50: −log10 of the molar value. Read-outs that look alike come from different tables or passages of the source.

Experiments:
[1] = target: TNF-α converting enzyme (TACE) (Homo sapiens, UniProt P78536); test: Test procedure for measuring TACE inhibition (fluorescent peptidyl substrate); assay type: biochemical; conditions: for pIC50: Table 1; for IC50: second table, IC50 (nM) per footnote a
THP-1 cells = test: Human monocytic THP-1 cell differentiation assay for soluble proteins (THP soluble protein assay), LPS-stimulated, TNF-α ELISA; assay type: cell-based; conditions: for THP (% inhibition): Table 1, concentration not given; for inhibition at 3 µM: Homo sapiens, THP-1; at 3 uM; percent change from vehicle positive control; read-out: TNFalpha at 3 uM) THP (percent change)
MMP-13 = MMP-13 (Homo sapiens, UniProt P45452); test: MMP-13 inhibition (thiopeptide or fluorescent peptide substrate); assay type: biochemical; conditions: for inhibition at 10 µM: % @ 10µM per footnote a
Source text: Alternatively, a fluorescent peptide substrate is used.

MMP-1 = target: T1, MMP-1 (Homo sapiens, UniProt P03956); test: MMP-1 inhibition (thiopeptide or fluorescent peptide substrate); conditions: for inhibition at 10 µM: read-out: MMP1
T1 sequence (P03956 100-469): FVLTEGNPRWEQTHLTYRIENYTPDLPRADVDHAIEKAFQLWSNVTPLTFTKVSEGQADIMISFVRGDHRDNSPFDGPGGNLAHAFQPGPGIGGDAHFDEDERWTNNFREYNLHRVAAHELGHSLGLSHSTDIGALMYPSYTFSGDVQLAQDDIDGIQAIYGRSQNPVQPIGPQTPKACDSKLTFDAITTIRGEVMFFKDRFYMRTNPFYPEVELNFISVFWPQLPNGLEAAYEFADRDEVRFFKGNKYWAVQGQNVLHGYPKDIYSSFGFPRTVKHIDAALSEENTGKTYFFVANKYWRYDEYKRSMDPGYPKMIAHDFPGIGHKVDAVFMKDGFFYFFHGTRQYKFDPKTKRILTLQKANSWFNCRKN
Method: (§1) The enzyme activity is measured by the rate of the color increase. The thiopeptide substrate is made up fresh as a 20 mM stock in 100% DMSO and the DTNB is dissolved in 100% DMSO as a 100 mM stock and stored in the dark at room temperature. Both the substrate and DTNB are diluted together to 1 mM with substrate buffer (50 mM HEPES pH 7.5, 5 mM CaCl2) before use. The stock of enzyme is diluted with buffer (50 mM HEPES, pH 7.5, 5 mM CaCl2, 0.02% Brij) to the desired final concentration.
(§2) Alternatively, a fluorescent peptide substrate is used. In this test procedure, the peptide substrate contains a fluorescent group and a quenching group. Upon cleavage of the substrate by an MMP, the fluorescence that is generated is quantitated on the fluorescence plate reader. The assay is run in HCBC assay buffer (50mM HEPES, pH 7.0, 5 mM Ca^+2, 0.02% Brij, 0.5% Cysteine), with human recombinant MMP-1, MMP-9, or MMP-13. The substrate is dissolved in methanol and stored frozen in 1 mM aliquots. For the assay, substrate and enzymes are diluted in HCBC buffer to the desired concentrations. Compounds are added to the 96 well plate containing enzyme and the reaction is started by the addition of substrate.
(§3) For either the thiopeptide or fluorescent peptide test procedures, the slope of the line is calculated and represents the reaction rate. […] The mean (x±sem) of the control rate is calculated and compared for statistical significance (p<0.05) with drug-treated rates using Dunnett's multiple comparison test.

MMP-9 = MMP-9 (Homo sapiens, UniProt P14780); test: MMP-9 inhibition (thiopeptide or fluorescent peptide substrate); conditions: for inhibition at 10 µM: read-out: MMP9
Chain of MMP-9 (P14780 94-707): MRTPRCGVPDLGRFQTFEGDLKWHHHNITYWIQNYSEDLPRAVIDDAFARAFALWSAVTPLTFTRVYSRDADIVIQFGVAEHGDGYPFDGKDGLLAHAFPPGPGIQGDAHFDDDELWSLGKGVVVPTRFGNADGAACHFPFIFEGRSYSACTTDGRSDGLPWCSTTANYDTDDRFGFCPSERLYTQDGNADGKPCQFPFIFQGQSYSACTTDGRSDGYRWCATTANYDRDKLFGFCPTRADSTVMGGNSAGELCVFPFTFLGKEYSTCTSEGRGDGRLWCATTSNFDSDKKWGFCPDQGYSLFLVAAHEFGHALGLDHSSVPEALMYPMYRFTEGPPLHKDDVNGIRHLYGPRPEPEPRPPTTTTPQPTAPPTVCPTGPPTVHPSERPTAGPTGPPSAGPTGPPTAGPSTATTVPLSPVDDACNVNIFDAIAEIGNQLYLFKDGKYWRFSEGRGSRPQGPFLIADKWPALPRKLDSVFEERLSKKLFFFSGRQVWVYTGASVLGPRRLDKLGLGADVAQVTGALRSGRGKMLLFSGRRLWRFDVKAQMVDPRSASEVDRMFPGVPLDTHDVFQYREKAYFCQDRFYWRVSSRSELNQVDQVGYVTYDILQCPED
Method: as §1, §2, §3

Chain of TNF-α converting enzyme (TACE) (P78536 215-824): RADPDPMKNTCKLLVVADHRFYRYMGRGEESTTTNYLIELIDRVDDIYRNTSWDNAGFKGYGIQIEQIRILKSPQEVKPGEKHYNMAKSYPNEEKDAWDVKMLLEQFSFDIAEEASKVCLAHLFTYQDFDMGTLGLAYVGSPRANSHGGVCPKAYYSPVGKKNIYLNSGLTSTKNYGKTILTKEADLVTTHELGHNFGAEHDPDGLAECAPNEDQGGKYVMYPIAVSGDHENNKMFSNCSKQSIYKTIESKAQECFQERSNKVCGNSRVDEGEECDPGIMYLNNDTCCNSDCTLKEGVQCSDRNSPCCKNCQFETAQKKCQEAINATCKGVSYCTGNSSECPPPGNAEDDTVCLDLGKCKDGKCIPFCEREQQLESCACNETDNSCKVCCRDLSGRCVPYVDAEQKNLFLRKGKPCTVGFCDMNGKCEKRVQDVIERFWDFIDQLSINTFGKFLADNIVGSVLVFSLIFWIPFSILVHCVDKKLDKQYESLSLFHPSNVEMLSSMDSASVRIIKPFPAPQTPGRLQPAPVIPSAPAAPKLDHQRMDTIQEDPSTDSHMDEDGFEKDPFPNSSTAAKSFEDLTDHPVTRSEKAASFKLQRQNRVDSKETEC

Structure (SMILES) | pIC50 [1] | THP (% inhibition) (THP-1 cells) [%] | pIC50 (MMP-13; Table 1, read-out: MMP13 IC50) | pIC50 (MMP-1) | pIC50 (MMP-9) | IC50 [1] [nM] | inhibition at 3 µM (THP-1 cells) [%] | inhibition at 10 µM (MMP-13; read-out: MMP13) [%] | inhibition at 10 µM (MMP-1) [%] | inhibition at 10 µM (MMP-9) [%] | pIC50 (MMP-13; IC50, read-out: MMP13)
CC#CCOc1ccc(S(=O)(=O)C(C)(Cc2ccc(OCCN3CCCCC3)cc2)C(=O)NO)cc1 (stereo not drawn) [Example 1, 2-(4-But-2-ynyloxy-benzenesulfonyl)-N-hydroxy-2-methyl-3-[4-(2-piperidin-1-yl-ethoxy)-phenyl]-propionamide] | 6.72 | 25 | 6.70 | 5.70 | 6.74 | – | – | – | – | – | –
CC#CCOc1ccc(S(=O)(=O)C(C(=O)NO)c2ccc(F)cc2)cc1 (stereo not drawn) [Example 97, 2-{[4-(2-butynyloxy)phenyl]sulfonyl}-2-(4-fluorophenyl)-N-hydroxyacetamide] | – | – | – | – | – | 109 | 10 | 47.4 | 0.5 | 0.5 | –
CC#CCOc1ccc(S(=O)(=O)C(C)(Cc2ccc(-c3ccccc3)cc2)C(=O)NO)cc1 (stereo not drawn) [Example 2, 3-Biphenyl-4-yl-2-(4-But-2-ynyloxy-phenylsulfonyl)-N-hydroxy-2-methyl-propionamide] | 6.68 | 5 | 6.22 | 5.66 | 6.68 | – | – | – | – | – | –
CC#CCOc1ccc([S@+]([O-])[C@@H](CCCCCC)C(=O)NO)cc1 [Example 7, (S)-2-[(R)-[4-(2-Butynyloxy)phenylsulfinyl)]-N-hydroxyoctanamide] | 8.37 | 67 | 6.05 | 5.52 | 5.82 | – | – | – | – | – | –
CC#CCOc1ccc([S+]([O-])C(C(=O)NO)C2CCCCC2)cc1 (stereo not drawn) [Example 74, 2-{[4-(2-butynyloxy)phenyl]sulfinyl}-2-cyclohexyl-N-hydroxyacetamide] | – | – | – | 5.82 | 6.47 | 52 | 31 | – | – | – | 7.03
CC#CCOc1ccc(S(=O)(=O)C(CCCCCC#N)C(=O)NO)cc1 (stereo not drawn) [Example 72, 2-{[4-(2-butynyloxy)phenyl]sulfonyl}-7-cyano-N-hydroxy heptanamide] | – | – | – | – | 5.87 | 14.2 | 54 | – | 46.2 | – | 6.47
CC#CCOc1ccc(SC(CCCCCC)C(=O)NO)cc1 (stereo not drawn) [Example 6, 2-(4-But-2-ynyloxy-phenylsulfanyl)-octanoic acid hydroxamide] | 6.98 | 5 | 5.70 | 4.82 | 5.52 | – | – | – | – | – | –
CC#CCOc1ccc(S(=O)(=O)C(C(=O)NO)C(C)C)cc1 (stereo not drawn) [Example 110, 2-{[4-{2-butynyloxy)phenyl]sulfonyl}-2-isopropyl-N-hydroxyacetamide] | – | – | – | – | 5.29 | 17 | 25 | – | 39.6 | – | 5.90
CC#CCOc1ccc(S(=O)(=O)C(C)(Cc2cccnc2)C(=O)NO)cc1 (stereo not drawn) [Example 3, 2-(4-But-2-ynyloxy-phenylsulfonyl)-N-hydroxy-2-methyl-3-pyridin-3-ylpropionamide] | 7.80 | 14 | 7.16 | 5.85 | 6.85 | – | – | – | – | – | –
CC#CCOc1ccc(SC(C(=O)NO)C(C)C)cc1 (stereo not drawn) [Example 107, 2-{[4-(2-Butynyloxy)phenyl]sulfanyl}-2-isopropyl-N-hydroxyacetamide] | – | – | – | – | – | 157 | -13 | 59.4 | 2.8 | 56.8 | –
CC#CCOc1ccc([S@@+]([O-])[C@@H](CCCCCC)C(=O)NO)cc1 [Example 8, (S)-2-[(S)-[4-(2-Butynyloxy)phenylsulfinyl)]-N-hydroxyoctanamide] | 7.91 | 35 | 6.82 | 5.49 | 6.00 | – | – | – | – | – | –
CC#CCOc1ccc(S(=O)(=O)C(C(=O)NO)c2ccc(Cl)cc2)cc1 (stereo not drawn) [Example 82, 2-{[4-(2-butynyloxy)phenyl]sulfonyl}-2-(4-chlorophenyl)-N-hydroxyacetamide] | – | – | – | – | – | 108 | 14 | – | 27.1 | 38 | 5.30
